Values quoted from earlier work, collected in patent US6894093B2, “Materials free of endorine disruptive chemicals” (priority 2001, dated 2005).
Read-outs that look alike come from different tables or passages of the source. One block for each compound: values may come before it.

Assays:
[1] = set-up: key: Estrogenic (EA); Carcinogenic (CA) Activity; settings: plastic monomers

- endocrine disruptive activity (estrogen receptor (ER); statement in background text): exhibit endocrine disruptive activity
- estrogenic activity (estrogen receptor (ER); statement in background text): deleterious estrogenic activity
Compound: CC(C)(c1ccc(O)cc1)c1ccc(O)cc1 [Bisphenol A]
- Monomer Exhibits Estrogenic (EA) or Carcinogenic (CA) Activity [1]: EA

Compound: COc1ccc(O)c(C(C)(C)C)c1 [Butylated hydroxyanisole (BHA), Butylated hydroxyanisole]
- ADI: 0 to 0.5 mg/kg

Compound: CCCCC(CC)COC(=O)c1ccccc1C(=O)OCC(CC)CCCC (stereo not shown) [DEHP, di(2-ethylhexyl) phthalate]
- estrogenic activity (estrogen receptor (ER); statement in background text): estrogen-mimicking

- ADI: 0 to 2.5 mg/kg
Compound: CCCOC(=O)c1cc(O)c(O)c(O)c1 [Propyl gallate]

- ADI: 0 to 0.2 mg/kg
Compound: CC(C)(C)c1cc(O)ccc1O [Tert-Butylhydroquinone (TBHQ), Tert-Butylhydroquinone]

Compound: C=CCl [Vinylchloride]
- Monomer Exhibits Estrogenic (EA) or Carcinogenic (CA) Activity [1]: CA

Compound: (di)Butyl hydroxy toluene [(di)Butyl hydroxy toluene (BHT)]
- Predicted Estrogenic Activity (estrogen receptor (ER)): Yes
- endocrine disruptive activity (estrogen receptor (ER)): exhibits endocrine disruptive activity
